Data on three compounds can be found in patent publication US20090209525A1, “ENABLING METHODS TO IDENTIFY ALLOSTERIC MODULATORS OF RECEPTOR ACTIVITY” (priority 2006, published 2009).

One assay concerns the target T1, rat M1 S109A receptor (Rattus norvegicus, UniProt P08482, S109A).
T1 construct: expressed in transfected cells
T1 sequence (P08482 1-460 S109A): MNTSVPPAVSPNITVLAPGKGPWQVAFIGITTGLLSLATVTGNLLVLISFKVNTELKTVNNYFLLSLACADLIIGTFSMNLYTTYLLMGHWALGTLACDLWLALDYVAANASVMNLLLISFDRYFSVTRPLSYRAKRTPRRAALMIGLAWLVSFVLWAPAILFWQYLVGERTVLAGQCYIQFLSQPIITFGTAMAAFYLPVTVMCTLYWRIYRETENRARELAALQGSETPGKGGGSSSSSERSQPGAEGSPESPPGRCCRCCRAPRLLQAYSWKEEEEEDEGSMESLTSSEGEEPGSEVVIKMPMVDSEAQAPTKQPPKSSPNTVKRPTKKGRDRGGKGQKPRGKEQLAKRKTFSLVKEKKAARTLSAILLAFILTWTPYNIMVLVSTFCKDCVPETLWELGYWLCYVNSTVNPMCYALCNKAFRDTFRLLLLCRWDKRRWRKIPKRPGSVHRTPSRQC
The experiment in a line: ^3H-NMS radioligand binding, S109A. The conditions noted are these: for Shift: Ki S109A divided by Ki wild-type. Here is the method: Briefly, cell homogenates are prepared from cells transiently or stably expressing wild type or mutant receptors. For transiently transfected cells, HEK cells are transfected with receptor of interest and cells harvested 48 hours post transfection. Cells expressing the receptor, stably or transiently, are harvested using phosphate buffered saline containing 5 mM EDTA, cells centrifuged at low speed and pellet re-suspended in binding buffer. Cell suspension is polytroned and centrifuged at 15,000×g. The pellet is resuspended in binding buffer and centrifugation repeated two more times. The washed cell homogenates are used for the competition binding assays. Competition binding assays are carried out in the presence of fixed amount of cell homogenate, fixed concentration of radioactively labeled orthosteric or allosteric ligand and varying concentrations of the cal under study using appropriate buffer. Incubations are carried out at room temperature for 2 hours. Incubations are terminated by filtration onto GF/B filters using Packard cell harvester followed by 3 washes with ice-cold buffer. Radioactivity retained on the filters is quantitated using Packard Top Count using Microscint 20 scintillation fluid. […] The membranes prepared above are incubated with a labeled ligand in 25 mM sodium phosphate, 5 mM magnesium chloride, 0.01% BSA two hours at room temperature. The binding reaction is stopped by rapid filtration onto GF/B filters. […] The pKd values (pKd=−log Kd) of the labeled ligand are calculated.
Radioligand binding assays were carried out in 25 mM sodium phosphate, 5 mM magnesium chloride, 0.01% BSA. Incubations were for two hours at room temperature, and reactions were stopped by rapid filtration onto GF/B filters.

Assay [1] deals with T2, CHO cell membranes expressing the muscarinic M1 receptor (Homo sapiens, UniProt P11229).
T2 construct: expressed in transfected cells; host or cells: CHO
T2 sequence (P11229 1-460): T1 sequence (P08482 1-460 S109A) with V5A, A109S, S254T, S309P, K320R, G337A, V413I
The assay is described as follows: Equilibrium ^3H-NMS binding at 2 nM and 10 nM ^3H-NMS.

In assay [2] the target is T3, CHO-hM1 cell membranes (muscarinic M1 receptor) (Homo sapiens, UniProt P11229).
T3 construct: expressed in transfected cells; host or cells: CHO-hM1
T3 sequence (P11229 1-460): T1 sequence (P08482 1-460 S109A) with V5A, A109S, S254T, S309P, K320R, G337A, V413I
The experiment in a line: ^3H-NMS dissociation rate assay. The class given is binding. The conditions noted are these: for koff: read-out: koff of ^3H-NMS in the presence of the ligand. The procedure:
Approximately 10 μg protein was added per well in the assay.

Where [3] appears, read: ^3H-NMS 2 nM and 10 nM, result in words.
[4] abbreviates: atropine-induced dissociation, result in words.

Changes are numbered by the printed parent chain. Where two headings read alike, the source gives them in different places.

One may read the IC50 as the concentration at which inhibition is half-maximal. By koff is commonly meant the first-order rate constant of dissociation. Consider `CCCCC1CCN(CCCC(=O)c2ccccc2C)CC1` [AC-42, 4-n-butyl-1-[4-(2-methylphenyl)-4-oxo-1-butyl] piperidine hydrogen chloride], for which, on rat M1 S109A receptor, the IC50 is 2.51 µM and the Shift stood at 0.5. In assay [1], the “displacement of ^3H-NMS” value is recorded as “complete displacement of ^3H-NMS was not observed”. Further, in assay [2], the “effect on dissociation rate of ^3H-NMS” value is on record as “significantly retarded” and the off-rate (koff) was 0.00175 s⁻¹.

Turning to `CCCCC1CCN(CCCN2C(=O)COc3cc(F)ccc32)CC1` [AC-260584, 4-[3-(4-Butyl-piperidin-1-yl)-propyl]-7-fluoro-4H-benzo [1,4]oxazin-3-one], at rat M1 S109A receptor, the IC50 was 1.58 µM and the Shift amounted to 1. The “displacement of ^3H-NMS” value in assay [1] (setting [3]) is reported as “completely displace”. Besides, the “effect on dissociation rate of ^3H-NMS” value in assay [2] (setting [4]) was “significantly retarded”. In assay [2], the koff is 0.0015 s⁻¹.

`Clc1ccc2c(c1)N=C(N1CCNCC1)c1ccccc1N2` [NDMC, 8-chloro-11-(1-piperazinyl)-5H-dibenzo [b,e] [1,4] diazepine]: at rat M1 S109A receptor, the IC50 was 0.631 µM and the Shift was 4. Besides, in assay [1] (setting [3]), the “displacement of ^3H-NMS” value is “completely displace”. In assay [2] (setting [4]), the “effect on dissociation rate of ^3H-NMS” value is recorded as “did not significantly retard”. Further, the koff in assay [2] was 0.00338 s⁻¹.
